From ChEMBL document CHEMBL4418493, “N-hydroxyformamide compounds and compositions comprising them for use as BMP1, TLL1 and/or TLL2 inhibitors” (2018) come the findings set out here.

In one series the target is T1, Tolloid-like protein 2 (Homo sapiens, UniProt Q9Y6L7).
T1 sequence (Q9Y6L7 whole entry): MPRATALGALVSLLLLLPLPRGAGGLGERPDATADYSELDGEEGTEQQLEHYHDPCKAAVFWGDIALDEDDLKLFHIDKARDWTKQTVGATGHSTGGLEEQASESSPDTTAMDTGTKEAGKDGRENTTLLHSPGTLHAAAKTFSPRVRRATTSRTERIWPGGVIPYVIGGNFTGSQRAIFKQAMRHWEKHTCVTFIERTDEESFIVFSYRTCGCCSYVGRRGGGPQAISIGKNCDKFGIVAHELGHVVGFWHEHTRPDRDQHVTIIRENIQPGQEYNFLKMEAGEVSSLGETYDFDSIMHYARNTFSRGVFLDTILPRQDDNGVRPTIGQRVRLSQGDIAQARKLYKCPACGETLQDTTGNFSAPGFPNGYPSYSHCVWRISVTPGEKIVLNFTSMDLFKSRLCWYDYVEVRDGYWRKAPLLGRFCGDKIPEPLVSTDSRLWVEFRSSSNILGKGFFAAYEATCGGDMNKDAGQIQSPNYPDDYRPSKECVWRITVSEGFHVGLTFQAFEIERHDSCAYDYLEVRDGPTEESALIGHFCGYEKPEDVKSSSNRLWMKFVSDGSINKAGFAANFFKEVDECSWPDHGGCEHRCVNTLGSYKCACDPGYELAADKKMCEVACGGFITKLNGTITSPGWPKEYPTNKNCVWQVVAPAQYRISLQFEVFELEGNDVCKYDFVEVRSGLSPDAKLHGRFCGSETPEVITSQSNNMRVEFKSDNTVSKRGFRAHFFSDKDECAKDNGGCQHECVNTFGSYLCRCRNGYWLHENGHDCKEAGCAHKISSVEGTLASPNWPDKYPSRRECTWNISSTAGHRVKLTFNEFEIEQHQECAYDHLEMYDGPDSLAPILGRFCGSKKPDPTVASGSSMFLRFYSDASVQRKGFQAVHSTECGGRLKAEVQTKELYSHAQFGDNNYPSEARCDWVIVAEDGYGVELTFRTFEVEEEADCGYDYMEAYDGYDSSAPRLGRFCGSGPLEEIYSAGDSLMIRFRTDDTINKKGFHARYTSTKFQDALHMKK
Nature of the series: Inhibition of C-terminal Avi-6x-His epitope tagged and N-terminal human RAGE signal sequence tagged recombinant human TLL2 (26 to 1015 amino acids) expressed in CHOE1A cells incubated for 60 mins with promyostatin peptide substrate by FRET based assay. The series is classed as cell-based.

Series [1] has as its target T2, Bone morphogenetic protein 1 (Homo sapiens, UniProt P13497).
T2 sequence (P13497 whole entry): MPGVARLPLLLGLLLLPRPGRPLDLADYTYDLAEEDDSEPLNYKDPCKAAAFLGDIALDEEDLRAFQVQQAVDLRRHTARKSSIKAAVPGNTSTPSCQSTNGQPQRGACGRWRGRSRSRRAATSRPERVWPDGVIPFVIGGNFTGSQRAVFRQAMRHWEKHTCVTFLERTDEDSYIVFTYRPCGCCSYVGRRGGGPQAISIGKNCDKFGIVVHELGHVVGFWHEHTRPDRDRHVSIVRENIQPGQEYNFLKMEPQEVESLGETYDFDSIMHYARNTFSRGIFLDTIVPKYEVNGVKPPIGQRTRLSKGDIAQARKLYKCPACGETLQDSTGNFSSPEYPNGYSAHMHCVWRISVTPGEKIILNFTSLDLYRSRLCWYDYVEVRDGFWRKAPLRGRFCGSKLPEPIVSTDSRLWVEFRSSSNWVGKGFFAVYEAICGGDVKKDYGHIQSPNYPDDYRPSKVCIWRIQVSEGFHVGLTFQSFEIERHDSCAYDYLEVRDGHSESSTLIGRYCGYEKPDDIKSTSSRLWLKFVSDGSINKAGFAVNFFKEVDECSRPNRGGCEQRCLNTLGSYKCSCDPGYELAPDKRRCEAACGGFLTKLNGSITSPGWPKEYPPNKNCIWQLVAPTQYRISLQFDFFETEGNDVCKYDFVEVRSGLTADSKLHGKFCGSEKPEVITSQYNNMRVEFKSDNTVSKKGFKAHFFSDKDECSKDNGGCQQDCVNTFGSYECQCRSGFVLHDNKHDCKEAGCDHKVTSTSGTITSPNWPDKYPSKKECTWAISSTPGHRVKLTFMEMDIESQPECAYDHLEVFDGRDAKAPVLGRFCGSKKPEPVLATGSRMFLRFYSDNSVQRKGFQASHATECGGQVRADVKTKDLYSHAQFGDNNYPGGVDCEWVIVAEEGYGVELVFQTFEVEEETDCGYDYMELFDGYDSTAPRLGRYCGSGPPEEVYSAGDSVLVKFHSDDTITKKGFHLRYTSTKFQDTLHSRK
Nature of the series: Inhibition of C-terminal FLAG-6x-His epitope tagged and N-terminal human RAGE signal sequence tagged human BMP1 (121 to 721 amino acids) expressed in CHO-E1a cells pre-incubated for 10 mins before promyostatin peptide substrate addition and measured after 60 mins using 0.5 nM BMP1 by FRET based assay. Format: cell-based.

The target in another series is Tolloid-like protein 1 (Homo sapiens, UniProt O43897, I156V/N221S/V284A). The experiment in a line: Inhibition of recombinant human TLL1 I156V/N221S/V284A mutant expressed in CHOE1A cells pre-incubated for 10 mins before promyostatin peptide substrate addition and measured after 60 mins by FRET based assay. Format: cell-based.
Sequence of Tolloid-like protein 1 (O43897 148-1013 I156V/N221S/V284A limits assumed): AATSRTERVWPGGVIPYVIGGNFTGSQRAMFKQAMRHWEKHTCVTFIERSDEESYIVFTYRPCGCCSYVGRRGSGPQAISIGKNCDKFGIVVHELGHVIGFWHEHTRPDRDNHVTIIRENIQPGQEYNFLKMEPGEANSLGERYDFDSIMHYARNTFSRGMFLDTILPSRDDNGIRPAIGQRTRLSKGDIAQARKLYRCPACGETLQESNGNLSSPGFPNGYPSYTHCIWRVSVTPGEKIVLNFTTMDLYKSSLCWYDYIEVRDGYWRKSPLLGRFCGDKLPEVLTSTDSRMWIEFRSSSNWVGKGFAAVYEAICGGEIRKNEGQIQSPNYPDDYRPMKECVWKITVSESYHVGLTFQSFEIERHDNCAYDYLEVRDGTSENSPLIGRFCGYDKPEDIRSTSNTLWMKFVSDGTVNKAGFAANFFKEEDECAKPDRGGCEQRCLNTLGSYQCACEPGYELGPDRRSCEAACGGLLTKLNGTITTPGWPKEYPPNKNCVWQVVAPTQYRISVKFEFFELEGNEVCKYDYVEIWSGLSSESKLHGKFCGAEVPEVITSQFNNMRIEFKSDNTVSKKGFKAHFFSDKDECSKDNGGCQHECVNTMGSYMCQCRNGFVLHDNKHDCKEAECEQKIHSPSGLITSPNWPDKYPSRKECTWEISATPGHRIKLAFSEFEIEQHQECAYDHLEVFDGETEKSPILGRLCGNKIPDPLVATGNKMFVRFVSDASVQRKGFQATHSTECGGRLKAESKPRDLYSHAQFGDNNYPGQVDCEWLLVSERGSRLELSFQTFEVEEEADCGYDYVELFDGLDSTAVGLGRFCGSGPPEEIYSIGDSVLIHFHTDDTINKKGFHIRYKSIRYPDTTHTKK
Series [2] in a line: Reduction in PICP levels in human cardiac fibroblasts incubated for 24 to 48 hrs by ELISA. The series is classed as functional.
A short description of series [3]: Drug metabolism in heparinized pooled human plasma at pH 7.5 assessed as formation of N-(((R)-2-((R)-1-(N-hydroxyformamido)propyl)heptanamido)methyl)-5-phenylfuran-2-carboxamide at 100 to 2000 ng/ml incubated up to 4 or 24 hrs by LC-MS/MS analysis. The series is classed as ADME, cell-free. The settings on record: pH 7.5, 24 h.
Series [4] can be described thus: Reduction in mature collagen deposition levels in human cardiac fibroblasts incubated for 24 to 48 hrs by immunostaining based assay. Format: functional.
Series [5] can be described thus: Stability in pH 7.96 assessed as compound purity level at 1 mg/ml heated to 40 degC and measured at 200 hrs by LC/MS analsysis. The settings on record: buffer, read-out: Stability. The series is classed as physicochemical.
Series [6] can be described thus: Drug metabolism in heparinized pooled human plasma at pH 7.5 assessed as conversion to active compound at 100 to 2000 ng/ml incubated for 4 by LC-MS/MS analysis. The series is classed as ADME, cell-free.
Series [7] is described as follows: Drug metabolism in heparinized pooled human plasma at pH 7.5 assessed as formation of (3-ethoxy-5-(5-((((R)-2-((R)-1-(N-hydroxyformamido)propyl)heptanamido)methyl)carbamoyl) furan-2-yl)phenyl)phosphonic acid at 100 to 2000 ng/ml incubated up to 4 or 24 hrs by LC-MS/MS analysis. Format: ADME, cell-free. The note with it: pH 7.5, 24 h.

The IC50 is the point on the concentration scale where inhibition reaches its midpoint. Take `CCCCC[C@@H](C(=O)NCNC(=O)c1ccc(-c2cc(OCC)cc(P(=O)(O)OCOC(=O)OC(C)C)c2)o1)[C@@H](CC)N(O)C=O`: the IC50 at Tolloid-like protein 2 was less than 398 nM; in series [1] it was less than 316 nM; at Tolloid-like protein 1 it was less than 251 nM; in series [2], less than 398 nM.
With `CCCCC[C@@H](C(=O)NCNC(=O)c1ccc(-c2ccc(C(=O)N[C@@H](CC(=O)O)C(=O)OC(C)(C)C)c(OCC)c2)o1)[C@@H](CC)N(O)C=O`, the IC50 was 398 to 794 nM at Tolloid-like protein 2, 126 to 316 nM in series [1], 251 to 398 nM at Tolloid-like protein 1 and 398 to 3980 nM in series [2].
`CCCCC[C@@H](C(=O)NCNC(=O)c1ccc(-c2ccccc2)o1)[C@@H](CC)N(C=O)OCOP(=O)(O)O.N.N`: the Drug metabolism entry in series [3] is listed as “Metabolite_Detected”.
On to `CCCCC[C@@H](C(=O)NCNC(=O)c1ccc(-c2ccc(C(=O)N[C@@H](CC(=O)O)C(=O)OCC)c(OCC)c2)o1)[C@@H](CC)N(O)C=O`, for which the 50% inhibitory concentration (IC50) was 398 to 794 nM at Tolloid-like protein 2; 126 to 316 nM in [1]; less than 1000 nM in [4]; 251 to 398 nM at Tolloid-like protein 1; 398 to 3980 nM in series [2].
`CCCCC[C@@H](C(=O)NCNC(=O)c1ccc(-c2ccccc2)o1)[C@@H](CC)N(C=O)OC(=O)C(C)(C)C`: the remaining at 200 h, 1 mg/ml in series [5] was less than 80%. Also, the Drug metabolism entry was “Metabolite_Detected” in [3] and more than 10% in series [6]. In series [2], the IC50 is less than 3980 nM.
With `CCCCC[C@@H](C(=O)NCNC(=O)c1ccc(-c2ccc(C(=O)N[C@@H](CC(=O)OCC)C(=O)OCC)c(OCC)c2)o1)[C@@H](CC)N(O)C=O`, the IC50 was 398 to 794 nM at Tolloid-like protein 2, 126 to 316 nM in series [1], 251 to 398 nM on Tolloid-like protein 1 and 398 to 3980 nM in series [2].
For `CCCCC[C@@H](C(=O)NCNC(=O)c1ccc(-c2ccccc2)o1)[C@@H](CC)N(C=O)OC(=O)c1ccccc1`, in series [5], the remaining at 200 h, 1 mg/ml was less than 80%. Moreover, the Drug metabolism entry in series [3] was “Metabolite_Detected”; in [6], more than 10%. The compound further gave a concentration for half-maximal inhibition (IC50) in series [2] of less than 3980 nM.
As to `CCCCC[C@@H](C(=O)NCNC(=O)c1ccc(-c2cc(OCC)cc(P(=O)(O)Oc3ccccc3)c2)o1)[C@@H](CC)N(O)C=O`, the IC50 on Tolloid-like protein 2 was less than 398 nM; in series [1] it was less than 316 nM; on Tolloid-like protein 1, less than 251 nM; in series [2] it was less than 398 nM.
As to `CCCCC[C@@H](C(=O)NCNC(=O)c1ccc(-c2ccc(C(=O)OCC)cc2)o1)[C@@H](CC)N(O)C=O`, the half-inhibitory concentration (IC50) on Tolloid-like protein 2 is 398 to 794 nM; in series [1] it was 126 to 316 nM; on Tolloid-like protein 1, 251 to 398 nM; in series [2], 398 to 3980 nM.
Take `CCCCC[C@@H](C(=O)NCNC(=O)c1ccc(-c2ccc(C(=O)OCCN(C)C)cc2)o1)[C@@H](CC)N(O)C=O`: the IC50 at Tolloid-like protein 2 is 398 to 794 nM; in series [1], 126 to 316 nM; at Tolloid-like protein 1 it was 251 to 398 nM; in [2], 398 to 3980 nM.
For the compound `CCCCC[C@@H](C(=O)NCNC(=O)c1ccc(-c2ccc(C(=O)N[C@@H](CC(=O)OC(C)(C)C)C(=O)OC(C)(C)C)c(OCC)c2)o1)[C@@H](CC)N(O)C=O`, the IC50 on Tolloid-like protein 2 was 398 to 794 nM; in series [1], 126 to 316 nM; in series [4] it was less than 1000 nM; on Tolloid-like protein 1, 251 to 398 nM; in series [2] it was 398 to 3980 nM.
For the compound `CCCCC[C@@H](C(=O)NCNC(=O)c1ccc(-c2ccc(C(=O)OCCCC)cc2)o1)[C@@H](CC)N(O)C=O`, the IC50 at Tolloid-like protein 2 is 398 to 794 nM; in series [1] it was 126 to 316 nM; at Tolloid-like protein 1, 251 to 398 nM; in series [2], 398 to 3980 nM.
`CCCCC[C@@H](C(=O)NCNC(=O)c1ccc(-c2ccc(C(=O)N[C@@H](CC(=O)O)C(=O)OCOC(=O)c3ccccc3)c(OCC)c2)o1)[C@@H](CC)N(O)C=O`: the half-maximal inhibitory concentration (IC50) was less than 398 nM at Tolloid-like protein 2, less than 316 nM in series [1], less than 251 nM at Tolloid-like protein 1 and less than 398 nM in [2].
With `CCCCC[C@@H](C(=O)NCNC(=O)c1ccc(-c2ccccc2)o1)[C@@H](CC)N(C=O)OC(=O)OC`, in series [5], the remaining at 200 h, 1 mg/ml was less than 80%. Moreover, the results for the Drug metabolism result in series [3] and in [6] were “Metabolite_Detected” and more than 10%, respectively. This compound also showed an IC50 in series [2] of less than 3980 nM.
For the compound `CCCCC[C@@H](C(=O)NCNC(=O)c1ccc(-c2ccc(C(=O)N[C@@H](CC(=O)OC)C(=O)OC)c(OCC(=O)OC)c2)o1)[C@@H](CC)N(O)C=O`, the IC50 on Tolloid-like protein 2 was 398 to 794 nM; in series [1], 126 to 316 nM; on Tolloid-like protein 1, 251 to 398 nM; in series [2], 398 to 3980 nM. The remaining at 200 h, 1 mg/ml in series [5] is less than 80%.
As to `CCCCC[C@@H](C(=O)NCNC(=O)c1ccc(-c2cc(OCC)cc(P(=O)(Oc3ccccc3)Oc3ccccc3)c2)o1)[C@@H](CC)N(O)C=O`, the values for the IC50 in series [1] and in series [2] were 126 to 316 nM and less than 3980 nM, respectively.
For `CCCCC[C@@H](C(=O)NCNC(=O)c1ccc(-c2ccccc2)o1)[C@@H](CC)N(C=O)OC(=O)Cc1ccccc1`, the remaining at 200 h, 1 mg/ml in series [5] was less than 80%. The Drug metabolism entry in series [3] is recorded as “Metabolite_Detected”; in [6] it was more than 10%. Also, the half-inhibitory concentration (IC50) in series [2] is less than 3980 nM.
On to `CCCCC[C@@H](C(=O)NCNC(=O)c1ccc(-c2ccccc2)o1)[C@@H](CC)N(C=O)OC(=O)OC(C)(C)C`, for which the remaining at 200 h, 1 mg/ml in [5] was less than 80%. Moreover, the results for the IC50 in series [4] and in [2] were less than 1000 nM and less than 3980 nM, respectively. Besides, the Drug metabolism entry in series [3] is “Metabolite_Detected”; in [6], more than 10%.
For the compound `CCCCC[C@@H](C(=O)NCNC(=O)c1ccc(-c2cc(OCC)cc(P(=O)(OCOC(C)=O)OCOC(C)=O)c2)o1)[C@@H](CC)N(O)C=O`, the IC50 was 398 to 794 nM on Tolloid-like protein 2, 126 to 316 nM in series [1], 251 to 398 nM at Tolloid-like protein 1 and 398 to 3980 nM in [2]. Also, the Drug metabolism result in series [7] is given as “Metabolite_Detected”.
